According to US11801232B2, “Targeting of ARID1A-deficient cancers by inhibiting de novo pyrimidine synthesis pathway” (YALE UNIVERSITY, priority 2019, dated 2023):

Key:
HEC-1A cells = assay: Cytotoxicity (SRB) assay with CalcuSyn combination analysis; type: cell-based; conditions: Homo sapiens, Table 6, single drug, median effect, read-out: Dm
Description: (§1) Cytotoxicity assay. Cells were seeded in 96-well plates, with 2000 cells in 100 μL/well, and cultured for 24 h. The cells were treated with serial dilutions of drugs or without drug for an additional 72 h. Cell number was determined using a sulforhodamine B (SRB) assay, as previously described^23. Briefly, cells were fixed with 20% trichloroacetic acid (TCA), air-dried, and stained with 0.4% SRB dissolved in 1% acetic acid. After washing, protein-bound dye was solubilized with 10 mM unbuffered Tris-base solution (pH 10.5) and detected at 510 nm using a microplate reader. Percentage of cell-growth was calculated using the following formula: % cell growth=[(Absorbance sample)/(Absorbance untreated)]×100
(§2) Using CalcuSyn software (Biosoft), dose-effect curves were generated, and drug concentrations corresponding to a 50% decrease in cell number (IC50) were determined.
(§3) The drug concentrations corresponding to a median effect (Dm) are shown for each treatment; teriflunomide concentration is shown for combination (Combo) treatment at a 10:1 fixed molar ratio of two drugs, teriflunomide and AZD6738. […] CIwt<0.8, =0.8 to 1.2, and >1.2 indicates synergism, an additive effect, and antagonism, respectively. A CIwt value was calculated using the formula: CIwt=(ED50+2ED75+3ED90)/6. Datasets from at least three independent experiments were combined, and each table cell contains the mean value±SD.

JHOC-5 cells = assay: as above; type: cell-based; conditions: Homo sapiens, Table 5, single drug, median effect, read-out: Dm
Description: as §1, §2, §3

P-CHK1 Ser345 = assay: Immunoblot of phosphorylated CHK1 in ES2 cell lysates; type: cell-based, human; conditions: ES2 cells; teriflunomide 15 μM, AZD6738 1.5 μM
Description: (§4) Immunoblot Analysis and Co-Immunoprecipitation Assay. For immunoblotting experiments, cells were lysed in BC200 lysis buffer [20 mM Tris-HCl (pH 7.5), 200 mM NaCl, 1 mM EDTA, 0.2% Nonidet P-40 (NP-40), freshly added complete protease inhibitor cocktail (from Roche), and PhosSTOP phosphatase inhibitor (from Roche)] or in boiling SDS lysis buffer [1% SDS and 10 mM Tris-CI (pH 7.5)], as previously described^21. Protein concentrations were quantified using a modified Lowry assay, and equal protein amounts were loaded onto a 10% SDS-PAGE gel and separated by gel electrophoresis, followed by transfer to a nitrocellulose membrane. The nitrocellulose membrane was stained with Ponceau S to confirm equal protein loading and then blocked in 2% BSA in Tris-buffered saline with 0.1% Tween-20 (tris buffered saline with tween, or TBST). Primary antibody incubation was done for 2 h at room temperature or, for phospho-specific antibodies, overnight at 4° C. An HRP-conjugated secondary antibody was used, followed by detection using enhanced chemiluminescence substrate (from Pierce). Autoradiograph images were scanned and saved as unmodified TIFF images, and densitometry analysis was done with ImageJ (from NIH) software.

γ-H2AX = assay: Immunoblot and immunofluorescence of γ-H2AX in ES2 cells; type: cell-based, human; conditions: ARID1A-knockdown ES2 cells; teriflunomide 15 μM, AZD6738 1.5 μM, VX-970 0.075 μM; 24-72 h
Description: as §4
Immunofluorescence. […] Images of cells were acquired using a BZ-X710 fluorescence microscope (from KEYENCE) and analyzed using ImageJ (from NIH).

ES2-shARID1A xenografts = conditions: mouse, in vivo, ip, 4 mg/kg
Description: Animal Model. All animal procedures were conducted in accordance with a protocol approved by the Institutional Animal Care and Use Committee at Yale University.
Three mouse experiments were performed: (i) to assess an effect of teriflunomide on ES2 cells in vivo, (ii) to assess an effect of teriflunomide on SKOV3 cells in vivo, and (iii) to assess a combination effect of teriflunomide and AZD6738 on ES2-shARID1A cells in vivo. All experiments were performed using subcutaneous cell-xenograft models generated by injecting cells into the flanks of 6-week-old female athymic NCr-nu/nu mice (Charles River Laboratories).
Animal-human dose translation was calculated as previously described^24. Tumor volumes were measured every other day by caliper to determine tumor volume using the formula (length/2)×(width^2). […] Experiments were terminated when mean tumor volume of a vehicle ES2-shCon group reached 1000 mm^3. Tumor xenografts were excised at time of euthanasia. Representative samples were flash-frozen in liquid nitrogen for subsequent protein expression analysis by immunoblotting, as well as being formalin-fixed paraffin-embedded (alternatively, FFPE) for subsequent hematoxylin and eosin staining and immunohistochemical analysis. FFPE sections were reviewed by a pathologist (alternatively, P.H.), and cellular necrosis was quantified as % cross-sectional area of bisected tumor xenografts. […]

Row | Compound | IC50 (HEC-1A cells) [µM] | IC50 (JHOC-5 cells) [µM] | Phosphorylation of CHK1 on serine 345 (P-CHK1 Ser345) | γ-H2AX protein levels (γ-H2AX) | Weight loss or toxicity in mice (ES2-shARID1A xenografts)
1 | C[C@@H]1COCCN1c1cc(C2([S@](C)(=N)=O)CC2)nc(-c2cc[nH]c3nccc2-3)n1 [AZD6738] | 4.47 ± 0.45 | 2.91 ± 0.76 | decreased levels | increased | –
2 | C/C(O)=C(\C#N)C(=O)Nc1ccc(C(F)(F)F)cc1 [Teriflunomide, teriflunomide] | 50.5 ± 4.99 | 25.2 ± 1.85 | – | – | no significant weight loss or toxicity
